The source of these data is patent US9045491B2, “Thienyl [3,2-D] pyrimidin-4-one compounds, preparation method, pharmaceutical compositions and use thereof” (SHANGHAI INSTITUTE OF MATERIA MEDICA, CHINESE ACADEMY OF …, priority 2011, dated 2015).

Holding throughout (assay type): biochemical
One test has as its target T1, human DPP IV (Homo sapiens, UniProt P27487).
T1 construct: extracellular fragment of protease DPP IV (aa29-766); made in house; host or cells: baculovirus expression system Bac-to-Bac
As to the kind of experiment: DPP IV activity screening (Ala-Pro-AMC fluorescence). The method, then: (§1) Screening method: dipeptidyl peptidase IV (DPP IV) activity screening, dipeptidyl peptidase 7 (DPP 7), dipeptidyl peptidase 8 (DPP 8) activity screening, and dipeptidyl peptidase 9 (DPP 9) activity screening.
Instruments: Microplate Reader (PerkinElmer, USA).
The linear change of fluorescence value at 460 nm in unit time was dynamically measured and DPP IV activity was obtained by calculation.
(§2) Sample treatment: the sample was dissolved in DMSO and stored in low temperature. The concentration of DMSO in the final system was controlled so that the detected activity was not affected.
(§3) The activity of sample was tested under the selected single concentration from preliminary screening, for example, 20 μg/mL. […] The software for calculation was Graphpad Prism 4 and the model used for fitting was sigmoidal dose-response (variable slope). For most inhibitor screening models, the bottom and top of the fitting curve were set to 0 and 100.

In test [1] the target is dipeptidyl peptidase 7 (DPP 7) (Homo sapiens, UniProt Q9UHL4). As to the kind of experiment: DPP 7 activity screening. Particulars: N.I. = No Inhibition. The method, then:
as §1, §2, §3

A further test deals with T2, human DPP 8 (Homo sapiens, UniProt Q6V1X1).
T2 construct: made in house; host or cells: insect cells, baculovirus Bac-to-Bac
In words: DPP 8 activity screening (Ala-Pro-AMC fluorescence). To be noted: N.I. = No Inhibition.
Description: as §1
(§4) Materials: human DPP IV, obtained extracellular fragment of protease DPP IV (aa29-766), was expressed and purified by our laboratory using baculovirus expression system Bac-to-Bac (purchased from GIBCO company) in accordance with the conventional experimental technology; human DPP 8 was obtained in insect cells by our laboratory using baculovirus expression system Bac-to-Bac (purchased from GIBCO company) in accordance with the conventional experimental technology; Human DPP 9 was obtained in insect cells by our laboratory using baculovirus expression system Bac-to-Bac (purchased from GIBCO company) in accordance with the conventional experimental technology; and the substrate Ala-Pro-AMC was synthesized by GL Biochem (Shanghai) Ltd.
(§5) Principle of Activity test: DPP IV, DPP 8 and DPP 9 can specifically hydrolyze the substrate Ala-Pro-AMC to form product AMC, and AMC is excited by 355 nm of UV light to generate 460 nm of emission light. The linear change of fluorescence value at 460 nm in unit time was dynamically measured and DPP IV activity was obtained by calculation.
as §2, §3

In a further test the target is T3, Human DPP 9 (Homo sapiens, UniProt Q86TI2).
T3 construct: made in house; host or cells: insect cells, baculovirus Bac-to-Bac
As to the kind of experiment: DPP 9 activity screening (Ala-Pro-AMC fluorescence). Particulars: N.I. = No Inhibition.
Description: as §1, §4, §5, §2, §3

In another test the target is T4, FAP (Homo sapiens, UniProt Q12884).
T4 sequence (Q12884 1-760): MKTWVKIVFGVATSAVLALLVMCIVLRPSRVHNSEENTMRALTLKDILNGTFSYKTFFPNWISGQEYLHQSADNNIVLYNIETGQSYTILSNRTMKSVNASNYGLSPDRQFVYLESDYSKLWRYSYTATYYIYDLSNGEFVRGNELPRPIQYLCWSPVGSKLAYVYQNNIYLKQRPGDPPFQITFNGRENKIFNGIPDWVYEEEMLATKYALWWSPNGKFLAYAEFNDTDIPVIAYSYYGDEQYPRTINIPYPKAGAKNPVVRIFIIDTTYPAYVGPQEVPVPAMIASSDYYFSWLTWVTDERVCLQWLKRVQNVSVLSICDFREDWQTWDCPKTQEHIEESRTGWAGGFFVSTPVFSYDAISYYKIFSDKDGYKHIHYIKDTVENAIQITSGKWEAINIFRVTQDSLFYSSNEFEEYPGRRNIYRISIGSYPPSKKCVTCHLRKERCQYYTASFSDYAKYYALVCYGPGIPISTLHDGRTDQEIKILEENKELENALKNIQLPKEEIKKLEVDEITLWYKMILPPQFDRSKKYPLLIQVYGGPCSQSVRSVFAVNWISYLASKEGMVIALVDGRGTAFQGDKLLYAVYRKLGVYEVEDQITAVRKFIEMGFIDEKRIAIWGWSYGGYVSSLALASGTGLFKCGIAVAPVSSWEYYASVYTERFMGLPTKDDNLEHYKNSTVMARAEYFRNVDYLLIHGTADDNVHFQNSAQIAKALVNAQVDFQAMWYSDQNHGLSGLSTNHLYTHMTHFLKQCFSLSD
In words: FAP inhibition (Table 1). To be noted: N.I. = No Inhibition.

The structures appear in SMILES notation.

T2 sequence (Q6V1X1 whole entry): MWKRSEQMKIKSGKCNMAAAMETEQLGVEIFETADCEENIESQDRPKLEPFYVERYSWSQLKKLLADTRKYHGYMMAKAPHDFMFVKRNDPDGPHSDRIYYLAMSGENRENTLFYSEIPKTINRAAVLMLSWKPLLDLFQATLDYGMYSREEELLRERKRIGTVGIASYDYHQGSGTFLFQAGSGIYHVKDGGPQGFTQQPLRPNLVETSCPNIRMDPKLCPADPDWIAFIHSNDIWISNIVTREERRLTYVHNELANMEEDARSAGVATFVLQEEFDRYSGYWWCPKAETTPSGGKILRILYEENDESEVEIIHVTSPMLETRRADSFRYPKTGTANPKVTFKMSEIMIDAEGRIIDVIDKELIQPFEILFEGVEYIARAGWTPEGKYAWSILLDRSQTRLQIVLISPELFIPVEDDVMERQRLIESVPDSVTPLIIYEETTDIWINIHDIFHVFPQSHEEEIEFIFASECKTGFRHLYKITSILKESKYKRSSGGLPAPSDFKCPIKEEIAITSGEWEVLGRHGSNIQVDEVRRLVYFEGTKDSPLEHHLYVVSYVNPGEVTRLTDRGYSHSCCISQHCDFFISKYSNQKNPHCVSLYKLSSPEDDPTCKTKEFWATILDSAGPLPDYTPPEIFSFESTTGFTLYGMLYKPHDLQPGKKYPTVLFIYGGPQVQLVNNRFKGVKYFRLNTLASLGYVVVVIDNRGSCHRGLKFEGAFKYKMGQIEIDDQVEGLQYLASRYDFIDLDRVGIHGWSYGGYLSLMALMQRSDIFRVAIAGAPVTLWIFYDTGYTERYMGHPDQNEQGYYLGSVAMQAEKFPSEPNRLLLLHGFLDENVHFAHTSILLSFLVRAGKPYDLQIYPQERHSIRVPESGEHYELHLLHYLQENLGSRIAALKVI
T3 sequence (Q86TI2 whole entry): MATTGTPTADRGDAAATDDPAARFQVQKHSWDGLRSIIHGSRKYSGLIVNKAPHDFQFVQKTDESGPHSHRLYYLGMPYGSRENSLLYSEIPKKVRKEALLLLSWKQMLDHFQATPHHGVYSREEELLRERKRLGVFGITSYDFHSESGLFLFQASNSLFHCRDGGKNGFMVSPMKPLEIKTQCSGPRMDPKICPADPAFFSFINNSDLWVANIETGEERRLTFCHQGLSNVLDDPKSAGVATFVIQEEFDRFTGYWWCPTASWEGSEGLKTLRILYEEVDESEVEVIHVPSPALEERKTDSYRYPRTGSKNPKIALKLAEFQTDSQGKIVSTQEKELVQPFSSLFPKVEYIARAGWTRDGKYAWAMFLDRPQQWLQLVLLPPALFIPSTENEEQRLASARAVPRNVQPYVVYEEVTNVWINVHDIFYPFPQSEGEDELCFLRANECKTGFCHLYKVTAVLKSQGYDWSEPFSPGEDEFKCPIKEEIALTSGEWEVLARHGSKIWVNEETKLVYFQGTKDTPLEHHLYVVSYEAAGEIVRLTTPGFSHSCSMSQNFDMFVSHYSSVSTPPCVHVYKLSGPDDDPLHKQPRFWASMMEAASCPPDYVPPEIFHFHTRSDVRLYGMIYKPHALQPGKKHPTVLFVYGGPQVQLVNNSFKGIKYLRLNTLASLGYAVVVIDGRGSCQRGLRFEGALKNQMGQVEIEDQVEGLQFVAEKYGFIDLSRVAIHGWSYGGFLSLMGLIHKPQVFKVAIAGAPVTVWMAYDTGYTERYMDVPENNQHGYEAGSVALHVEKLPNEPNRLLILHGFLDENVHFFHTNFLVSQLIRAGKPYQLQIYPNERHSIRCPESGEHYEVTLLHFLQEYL
T1 sequence (P27487 29-766): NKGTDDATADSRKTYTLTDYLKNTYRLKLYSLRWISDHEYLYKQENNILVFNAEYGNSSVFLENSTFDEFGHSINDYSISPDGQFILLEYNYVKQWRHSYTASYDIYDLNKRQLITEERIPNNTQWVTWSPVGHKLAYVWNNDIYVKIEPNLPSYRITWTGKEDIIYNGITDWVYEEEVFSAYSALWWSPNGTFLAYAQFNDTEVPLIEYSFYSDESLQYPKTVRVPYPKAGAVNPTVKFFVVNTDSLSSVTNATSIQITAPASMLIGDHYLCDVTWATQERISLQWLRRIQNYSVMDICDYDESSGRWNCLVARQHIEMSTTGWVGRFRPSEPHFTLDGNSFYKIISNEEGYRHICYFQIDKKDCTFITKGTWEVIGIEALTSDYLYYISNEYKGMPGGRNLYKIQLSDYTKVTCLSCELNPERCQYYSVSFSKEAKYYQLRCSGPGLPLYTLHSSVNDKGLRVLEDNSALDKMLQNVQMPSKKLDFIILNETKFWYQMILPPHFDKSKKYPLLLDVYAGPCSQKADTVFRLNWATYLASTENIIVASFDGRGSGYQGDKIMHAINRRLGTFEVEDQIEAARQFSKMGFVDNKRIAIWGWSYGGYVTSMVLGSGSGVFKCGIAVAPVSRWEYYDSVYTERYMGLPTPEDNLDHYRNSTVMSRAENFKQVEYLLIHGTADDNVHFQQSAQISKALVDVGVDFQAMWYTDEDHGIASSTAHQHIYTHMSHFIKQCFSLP

As to `CC(C)NC(=O)c1csc2c(=O)n(Cc3ccccc3C#N)c(N3CCC[C@@H](N)C3)nc12` [Compound 72, (R)-2-(3-aminopiperidin-1-yl)-3-(2-cyanobenzyl)-N-isopropyl-4-oxo-3,4-dihydrothieno[3,2-d]pyrimidine-7-carboxamide], the concentration for half-maximal inhibition (IC50) (commonly the concentration that gives 50% inhibition) on human DPP IV was determined as 0.0151 µM; at human DPP 8, 30.1 µM; against Human DPP 9 it was 149 µM; against FAP, 39.4 µM. Besides, the “DPP 7 IC50” value in test [1] is given as “N.I”.
Regarding `CC(C)CNC(=O)c1cc2nc(N3CCC[C@@H](N)C3)n(Cc3ccccc3C#N)c(=O)c2s1` [Compound 116, (R)-2-(3-aminopiperidin-1-yl)-3-(2-cyanobenzyl)-N-isobutyl-4-oxo-3,4-dihydrothieno[3,2-d]pyrimidine-6-carboxamide], the IC50 was 0.0186 µM on human DPP IV, 95.3 µM on human DPP 8 and 126 µM on FAP. In addition, in test [1], the “DPP 7 IC50” value was “N.I”. The “DPP 9 IC50” value at Human DPP 9 was “N.I”.
For the compound `N#Cc1ccccc1Cn1c(N2CCC[C@@H](N)C2)nc2cc(C(=O)N3CCCCC3)sc2c1=O` [Compound 108, (R)-2-((2-(3-aminopiperidin-1-yl)-4-oxo-6-(piperidine-1-carbonyl)thieno-[3,2-d]pyrimidin-3(4H)-yl)methyl)-benzonitrile], the 50% inhibitory concentration (IC50) on human DPP IV was found to be 0.0118 µM; against human DPP 8, 15.1 µM; against Human DPP 9, 111 µM; against FAP, 27 µM. Besides, in test [1], the “DPP 7 IC50” value is given as “N.I”.
Regarding `COCCNC(=O)c1cc2nc(N3CCC[C@@H](N)C3)n(Cc3ccccc3C#N)c(=O)c2s1` [Compound 111, (R)-2-(3-aminopiperidin-1-yl)-3-(2-cyanobenzyl)-N-(2-methoxyethyl)-4-oxo-3,4-dihydrothieno[3,2-d]-pyrimidine-6-carboxamide], the IC50 on human DPP IV stood at 0.0189 µM; at human DPP 8, 112 µM; on Human DPP 9 it was 131 µM. Also, in test [1], the “DPP 7 IC50” value is recorded as “N.I”. In addition, on FAP, the “FAP IC50” value was “N.I”.
Turning to `N#Cc1ccccc1Cn1c(N2CCC[C@@H](N)C2)nc2c(CO)csc2c1=O` [Compound 43, (R)-2-((2-(3-aminopiperidin-1-yl)-7-(hydroxymethyl)-4-oxothieno[3,2-d]-pyrimidin-3(4H)-yl)methyl)benzonitrile], the IC50 against human DPP IV worked out at 0.0189 µM. Besides, the “DPP 7 IC50” value in test [1] is reported as “N.I”. Besides, at human DPP 8, the “DPP 8 IC50” value is on record as “N.I”. Also, the “DPP 9 IC50” value at Human DPP 9 was “N.I”. For the same compound, the “FAP IC50” value at FAP is “N.I”.
`N#Cc1ccccc1Cn1c(N2CCC[C@@H](N)C2)nc2cc(C(=O)NC3CC3)sc2c1=O` [Compound 40, (R)-2-(3-aminopiperidin-1-yl)-3-(2-cyanobenzyl)-N-cyclopropyl-4-oxo-3,4-dihydrothieno[3,2-d]pyrimidine-6-carboxamide]: the concentration for half-maximal inhibition (IC50) at human DPP IV is 0.0183 µM; against Human DPP 9 it was 266 µM; against FAP it was 213 µM. The “DPP 7 IC50” value in test [1] is on record as “N.I”. Besides, at human DPP 8, the “DPP 8 IC50” value is listed as “N.I”.
In the case of `COC(=O)[C@H](Cc1ccccc1)NC(=O)c1csc2c(=O)n(Cc3ccccc3C#N)c(N3CCC[C@@H](N)C3)nc12` [Compound 67, (S)-methyl 2-(2-((R)-3-aminopiperidin-1-yl)-3-(2-cyanobenzyl)-4-oxo-3,4-dihydrothieno[3,2-d]pyrimidine-7-carboxamido)-3-phenylpropanoate], the concentration for half-maximal inhibition (IC50) was found to be 0.0137 µM at human DPP IV, 24.9 µM at human DPP 8, 53 µM at Human DPP 9 and 28.1 µM against FAP. Also, the “DPP 7 IC50” value in test [1] is “N.I”.
Taken in the same sequence, the figures for `COCCNC(=O)c1csc2c(=O)n(Cc3ccccc3C#N)c(N3CCC[C@@H](N)C3)nc12` [Compound 74, (R)-2-(3-aminopiperidin-1-yl)-3-(2-cyanobenzyl)-N-(2-methoxyethyl)-4-oxo-3,4-dihydrothieno[3,2-d]pyrimidine-7-carboxamide] were 0.0106 µM, 18.4 µM, 92.9 µM, 30.6 µM and “N.I”.
Taken in the same sequence, the figures for `CN(C)C(=O)c1csc2c(=O)n(Cc3ccccc3C#N)c(N3CCC[C@@H](N)C3)nc12` [Compound 63, (R)-2-(3-aminopiperidin-1-yl)-3-(2-cyanobenzyl)-N,N-dimethyl-4-oxo-3,4-dihydrothieno[3,2-d]pyrimidine-7-carboxamide] were 0.0275 µM, 47.9 µM, 189 µM, 170 µM and “N.I”.
As for `COC(=O)c1csc2c(=O)n(Cc3ccccc3C#N)c(N3CCC[C@@H](N)C3)nc12` [Compound 57, (R)-methyl 2-(3-aminopiperidin-1-yl)-3-(2-cyanobenzyl)-4-oxo-3,4-dihydrothieno[3,2-d]pyrimidine-7-carboxylate], the values for the concentration for half-maximal inhibition (IC50) (at human DPP IV; in test [1]) were 0.02 µM and 69.5 µM, respectively. Moreover, on human DPP 8, the “DPP 8 IC50” value is given as “N.I”. For the same compound, the “DPP 9 IC50” value at Human DPP 9 is “N.I”. Further, the “FAP IC50” value at FAP was “N.I”.
For `Cc1ccc(CNC(=O)c2csc3c(=O)n(Cc4ccccc4C#N)c(N4CCC[C@@H](N)C4)nc23)cc1` [Compound 64, (R)-2-(3-aminopiperidin-1-yl)-3-(2-cyanobenzyl)-N-(4-methylbenzyl)-4-oxo-3,4-dihydrothieno[3,2-d]-pyrimidine-7-carboxamide], the IC50 came out at 0.0332 µM against human DPP IV; 52 µM in test [1]; 5.81 µM against human DPP 8; 39.7 µM at Human DPP 9; 9.38 µM against FAP.
Take `COC(=O)CNC(=O)c1cc2nc(N3CCC[C@@H](N)C3)n(Cc3ccccc3C#N)c(=O)c2s1` [Compound 99, (R)-methyl 2-(2-(3-aminopiperidin-1-yl)-3-(2-cyanobenzyl)-4-oxo-3,4-dihydrothieno[3,2-d]pyrimidine-6-carboxamido)acetate]: the IC50 was 0.0247 µM on human DPP IV, 66 µM at human DPP 8, 179 µM on Human DPP 9 and 178 µM against FAP. Besides, in test [1], the “DPP 7 IC50” value is reported as “N.I”.
For the compound `N#Cc1ccccc1Cn1c(N2CCC[C@@H](N)C2)nc2c(C#N)csc2c1=O` [Compound 83, (R)-2-(3-aminopiperidin-1-yl)-3-(2-cyanobenzyl)-4-oxo-3,4-dihydrothieno-[3,2-d]pyrimidine-7-carbonitrile], the concentration for half-maximal inhibition (IC50) on human DPP IV was found to be 0.0161 µM; in test [1], 38.2 µM; against human DPP 8 it was 317 µM; at FAP, 160 µM. For the same compound, on Human DPP 9, the “DPP 9 IC50” value is recorded as “N.I”.
Turning to `CC(C)CNC(=O)c1csc2c(=O)n(Cc3ccccc3C#N)c(N3CCC[C@@H](N)C3)nc12` [Compound 79, (R)-2-(3-aminopiperidin-1-yl)-3-(2-cyanobenzyl)-N-isobutyl-4-oxo-3,4-dihydrothieno[3,2-d]pyrimidine-7-carboxamide], the IC50 amounted to 0.0151 µM against human DPP IV; 357 µM in test [1]; 47 µM on human DPP 8; 226 µM against Human DPP 9; 40.9 µM against FAP.
On to `N#Cc1ccccc1Cn1c(N2CCC[C@@H](N)C2)nc2cc(C(=O)N3CCOCC3)sc2c1=O` [Compound 118, (R)-2-((2-(3-aminopiperidin-1-yl)-6-(morpholine-4-carbonyl)-4-oxothieno-[3,2-d]pyrimidin-3(4H)-yl)methyl)-benzonitrile], for which the half-maximal inhibitory concentration (IC50) against human DPP IV was found to be 0.0185 µM; against human DPP 8, 83.6 µM; on FAP it was 80.2 µM. Besides, the “DPP 7 IC50” value in test [1] is on record as “N.I”. In addition, at Human DPP 9, the “DPP 9 IC50” value is given as “N.I”.
